Among the test systems are Escherichia coli; Candida albicans; Staphylococcus aureus; Acinetobacter baumannii; Escherichia coli UB1005; Bacillus subtilis.
Common to all, as to assay: ≥ marks a high value that may be exact or a test limit, other limits are often not marked, values filed in µg/mL are converted to µM
Experiment [1] relates to Staphylococcus aureus ATCC 6538.
The test system of experiment [2] is Pseudomonas aeruginosa ATCC 9027.
The test system of experiment [3] is Acinetobacter baumannii ATCC 19606.
The test system of experiment [4] is Escherichia coli ATCC 25922.
In experiment [5] the test system is Staphylococcus aureus ATCC 29213.
For experiment [6], the system named is Salmonella enterica subsp. enterica serovar Typhimurium C77-31.
Experiment [7] concerns Staphylococcus aureus ATCC 25923.
Experiment [8] has as its system Staphylococcus epidermidis ATCC 12228.
Experiment [9] deals with Klebsiella pneumoniae ATCC 700603.
Experiment [10] has as its system Enterococcus faecalis ATCC 29212.

In brackets after ≈: the same amount, converted by molar mass. A value given as a limit tells only on which side of the number the result lay.

The MIC is the smallest concentration in the dilution series that meets the test's criterion for growth inhibition. A lower MIC goes with inhibition by little substance.

Consider `CC(C)C[C@H](NC(=O)[C@H](C)NC(=O)[C@H](CCCCN)NC(=O)[C@H](C)NC(=O)[C@H](CC(C)C)NC(=O)[C@H](CCCCN)NC(=O)[C@H](CCCCN)NC(=O)[C@H](C)NC(=O)[C@H](CC(C)C)NC(=O)[C@H](CCCCN)NC(=O)[C@H](CCCCN)NC(=O)[C@H](C)NC(=O)[C@@H](N)Cc1ccccc1)C(N)=O` [FAKKLAKKLAKAL], for which the figures for the MIC in experiment [1] and in [2] were 10.5 µM (≈ 15 µg/mL) and 3.5 µM (≈ 5 µg/mL), respectively.
For `CC(C)C[C@H](NC(=O)[C@H](CCCCN)NC(=O)[C@H](CCCCN)NC(=O)[C@H](C)NC(=O)[C@H](CC(C)C)NC(=O)[C@H](CCCCN)NC(=O)[C@H](C)NC(=O)[C@H](CC(C)C)NC(=O)[C@H](CCCCN)NC(=O)[C@H](CCCCN)NC(=O)[C@H](C)NC(=O)[C@@H](N)Cc1ccccc1)C(N)=O` [FAKKLAKLAKKL], the MIC was determined as 73.6 µM (≈ 99.9 µg/mL) in [1] and 18.4 µM (≈ 25 µg/mL) in experiment [2].
Consider `CC(C)C[C@H](NC(=O)[C@H](C)NC(=O)[C@H](CCCCN)NC(=O)[C@H](CCCCN)NC(=O)[C@H](Cc1ccccc1)NC(=O)[C@H](C)NC(=O)[C@H](CCCCN)NC(=O)[C@H](C)NC(=O)[C@H](CC(C)C)NC(=O)[C@H](CC(C)C)NC(=O)[C@H](CCCCN)NC(=O)[C@H](C)NC(=O)[C@@H](N)Cc1ccccc1)C(N)=O` [FAKLLAKAFKKAL], for which the values for the MIC in experiment [1] and in experiment [2] were 34.5 µM (≈ 50 µg/mL) and 10.4 µM (≈ 15 µg/mL), respectively.
As to `CC(C)C[C@H](NC(=O)[C@H](CCCCN)NC(=O)[C@H](CCCCN)NC(=O)[C@H](C)NC(=O)[C@H](CC(C)C)NC(=O)[C@H](CCCCN)NC(=O)[C@H](C)NC(=O)[C@H](CC(C)C)NC(=O)[C@H](CC(C)C)NC(=O)[C@H](CCCCN)NC(=O)[C@H](C)NC(=O)[C@@H](N)Cc1ccccc1)C(N)=O` [FAKLLAKLAKKL], the MIC in [1] was 7.44 µM (≈ 9.99 µg/mL); in [2], 149 µM (≈ 200 µg/mL).
As to `CC[C@H](C)[C@H](NC(=O)CNC(=O)[C@H](CCCCN)NC(=O)[C@@H](NC(=O)[C@H](CC(C)C)NC(=O)[C@H](CO)NC(=O)CNC(=O)[C@H](CC(C)C)NC(=O)CNC(=O)[C@H](C)NC(=O)[C@H](CCCCN)NC(=O)[C@H](CC(C)C)NC(=O)[C@@H](NC(=O)[C@H](CCC(=O)O)NC(=O)[C@H](CCCCN)NC(=O)[C@H](Cc1ccccc1)NC(=O)CN)C(C)C)C(C)C)C(=O)N1CCC[C@H]1C(=O)N[C@@H](C)C(=O)N[C@@H](Cc1cnc[nH]1)C(=O)N[C@H](C(=O)N[C@@H](C)C(=O)N[C@@H](CC(N)=O)C(N)=O)C(C)C` [GFKEVLKAGLGSLVKGIPAHVAN], the values for the minimal inhibitory concentration (MIC) with Escherichia coli, in the experiment on Candida albicans and in the experiment on Staphylococcus aureus were 217 µM (≈ 500 µg/mL), greater than 400 µM and 434 µM (≈ 1000 µg/mL), respectively.
With `CC[C@H](C)[C@H](NC(=O)[C@H](CCCN=C(N)N)NC(=O)[C@@H](NC(=O)[C@@H](NC(=O)[C@@H]1CCCN1C(=O)[C@@H](NC(=O)[C@@H](NC(=O)[C@@H](NC(=O)[C@@H]1CCCN1C(=O)CNC(=O)[C@H](Cc1ccc(O)cc1)NC(=O)[C@H](CCCCN)NC(=O)[C@H](CCCCN)NC(=O)[C@H](Cc1c[nH]c2ccccc12)NC(=O)[C@H](C)NC(=O)[C@H](CCCN=C(N)N)NC(=O)[C@H](CC(C)C)NC(=O)[C@@H](NC(=O)[C@H](CCCCN)NC(=O)[C@H](CCCN=C(N)N)NC(=O)CNC(=O)[C@H](CC(C)C)NC(=O)[C@H](CCCCN)NC(=O)[C@H](CCCN=C(N)N)NC(=O)[C@H](CC(C)C)NC(=O)CNC(=O)CN)[C@@H](C)CC)[C@@H](C)CC)[C@@H](C)CC)C(C)C)[C@@H](C)CC)[C@@H](C)CC)C(=O)O` [GGLRKLGRKILRAWKKYGPIIVPIIRI], the MIC is 6.42 µM (≈ 20 µg/mL) against Acinetobacter baumannii and 3.21 µM (≈ 10 µg/mL) in [3].
As for `CC[C@H](C)[C@H](NC(=O)[C@H](Cc1c[nH]c2ccccc12)NC(=O)[C@H](CCCCN)NC(=O)[C@H](CC(C)C)NC(=O)[C@@H](NC(=O)[C@H](CCCCN)NC(=O)CNC(=O)[C@@H](NC(=O)[C@@H](NC(=O)[C@H](CCCCN)NC(=O)[C@H](CC(C)C)NC(=O)[C@@H](NC(=O)[C@@H](NC(=O)[C@H](CCCN=C(N)N)NC(=O)[C@@H](NC(=O)[C@@H](NC(=O)[C@H](CCCCN)NC(=O)[C@H](CCCN=C(N)N)NC(=O)[C@H](CC(C)C)NC(=O)[C@@H](NC(=O)[C@H](CCCN=C(N)N)NC(=O)[C@H](Cc1ccccc1)NC(=O)[C@@H](NC(=O)CN)C(C)C)C(C)C)C(C)C)[C@@H](C)O)C(C)C)C(C)C)C(C)C)[C@@H](C)CC)C(C)C)C(N)=O` [GVFRVLRKVTRVVLKVIGKVLKWI], the MIC against Escherichia coli UB1005 stood at 4 µM (≈ 11.2 µg/mL); in experiment [4], 2 µM (≈ 5.61 µg/mL); in experiment [5], 2 µM (≈ 5.61 µg/mL); in experiment [6], 4 µM (≈ 11.2 µg/mL); in experiment [7] it was 2 µM (≈ 5.61 µg/mL); in experiment [8] it was 2 µM (≈ 5.61 µg/mL).
As to `CC[C@H](C)[C@H](N)C(=O)N[C@@H](CC(N)=O)C(=O)N[C@@H](Cc1c[nH]c2ccccc12)C(=O)N[C@@H](CC(C)C)C(=O)N[C@@H](CCCCN)C(=O)N[C@@H](CC(C)C)C(=O)NCC(=O)N[C@@H](CCCCN)C(=O)N[C@@H](CCCCN)C(=O)N[C@@H](CCSC)C(=O)N[C@@H](CCSC)C(=O)N[C@@H](CO)C(=O)N[C@@H](C)C(=O)N[C@H](C(N)=O)[C@@H](C)CC` [INWLKLGKKMMSAI], the MIC with Escherichia coli is 70 µM (≈ 114 µg/mL); against Bacillus subtilis, no less than 35 µM.
Consider `CC[C@H](C)[C@H](N)C(=O)N[C@@H](CC(N)=O)C(=O)N[C@@H](Cc1c[nH]c2ccccc12)C(=O)N[C@@H](CO)C(=O)N[C@@H](CO)C(=O)N[C@H](C(=O)N[C@@H](Cc1ccccc1)C(=O)N[C@@H](CCC(=O)O)C(=O)N[C@@H](CO)C(=O)N[C@H](C(=O)N[C@@H](CCCCN)C(=O)N[C@@H](CC(N)=O)C(=O)N[C@@H](CC(C)C)C(=O)N[C@H](C(N)=O)C(C)C)C(C)C)[C@@H](C)CC` [INWSSIFESVKNLV], for which the MIC with Escherichia coli is 100 µM (≈ 163 µg/mL); against Bacillus subtilis, no less than 87.5 µM.
As for `CC[C@H](C)[C@H](N)C(=O)N[C@H](C(=O)N[C@@H](CCCCN)C(=O)N[C@@H](Cc1c[nH]c2ccccc12)C(=O)N[C@@H](CC(C)C)C(=O)N[C@@H](CC(C)C)C(=O)N[C@@H](CC(N)=O)C(=O)N[C@@H](C)C(=O)N[C@H](C(=O)N[C@@H](CCCCN)C(=O)N[C@@H](CCCCN)C(=O)NCC(=O)N[C@@H](Cc1ccccc1)C(=O)N[C@@H](CCCCN)C(=O)N[C@@H](CC(C)C)C(=O)O)[C@@H](C)CC)[C@@H](C)O` [ITKWLLNAIKKGFKL], the MIC against Acinetobacter baumannii is no less than 32 µM; in experiment [4], 64 µM (≈ 113 µg/mL); in experiment [7] it was 64 µM (≈ 113 µg/mL); in experiment [2], 64 µM (≈ 113 µg/mL); in experiment [9] it was 64 µM (≈ 113 µg/mL).
Regarding `CC[C@H](C)[C@H](NC(=O)CNC(=O)[C@H](CC(C)C)NC(=O)[C@H](CCCCN)NC(=O)[C@H](C)NC(=O)[C@H](CC(C)C)NC(=O)[C@H](C)NC(=O)[C@@H](NC(=O)[C@H](CCCCN)NC(=O)[C@H](C)NC(=O)[C@@H](NC(=O)[C@@H](N)CCCCN)[C@@H](C)CC)C(C)C)C(=O)NCC(=O)N[C@@H](C)C(=O)N[C@H](C(=O)N[C@@H](CC(C)C)C(=O)N[C@@H](CCCCN)C(=O)N[C@H](C(=O)N[C@@H](CC(C)C)C(=O)N[C@H](C(=O)N[C@H](C(=O)NCC(=O)N[C@@H](CC(C)C)C(N)=O)[C@@H](C)O)[C@@H](C)O)C(C)C)C(C)C` [KIAKVALAKLGIGAVLKVLTTGL], the MIC in [1] and in experiment [2] was 87.8 µM (≈ 200 µg/mL) throughout.
Regarding `CSCC[C@H](NC(=O)[C@H](CC(C)C)NC(=O)[C@H](CCCCN)NC(=O)CNC(=O)[C@H](C)NC(=O)[C@H](C)NC(=O)[C@H](CCCN=C(N)N)NC(=O)[C@H](Cc1ccccc1)NC(=O)[C@H](CC(C)C)NC(=O)[C@@H](NC(=O)[C@H](Cc1c[nH]c2ccccc12)NC(=O)[C@@H](NC(=O)[C@@H](N)CCCCN)C(C)C)[C@@H](C)O)C(=O)N[C@@H](C)C(=O)N[C@@H](CCCCN)C(N)=O` [KVWTLFRAAGKLMAK], the MIC in the experiment with Acinetobacter baumannii was 25 µM (≈ 43 µg/mL); in experiment [4] it was greater than 25 µM; in experiment [7] it was greater than 25 µM; in experiment [2], greater than 25 µM; in experiment [9], greater than 25 µM.
In the case of `CC[C@H](C)[C@H](NC(=O)[C@H](CCCCN)NC(=O)[C@H](CCCCN)NC(=O)[C@H](CC(C)C)NC(=O)[C@H](CCCN=C(N)N)NC(=O)[C@@H]1CSSC[C@H](NC(=O)[C@H](CCCN=C(N)N)NC(=O)[C@H](CC(C)C)NC(=O)[C@H](CCCN=C(N)N)NC(=O)[C@H](CCCN=C(N)N)NC(=O)[C@H](Cc2ccccc2)NC(=O)[C@@H](N)CCCN=C(N)N)C(=O)N[C@@H](CCCCN)C(=O)N[C@@H]([C@@H](C)O)C(=O)N[C@@H](CCCN=C(N)N)C(=O)N1)C(N)=O` [RFRRLRCKTRCRLKKI], the MIC with Escherichia coli UB1005 is no less than 128 µM; in experiment [5] it was greater than 128 µM; in experiment [10] it was greater than 128 µM; in experiment [6], no less than 128 µM; in experiment [8], greater than 128 µM.
